Test results taken from PMC5099944, “Design, synthesis and biological evaluation of hybrids of β-carboline and salicylic acid as potential anticancer and apoptosis inducing agents” (Scientific Reports, 2016).

Experiments:
[1] = system: Bax, Bcl-2, caspase-3, PARP in SMMC-7721 cells; assay: Western blot assay of apoptosis-related proteins; assay type: cell-based, human
Description: Next, to investigate the preliminarily molecular mechanisms underlying the cell apoptosis profiles in 8h-treated cells, we conducted western blot analysis to examine the expression of apoptosis proteins in SMMC-7721 cells. It is well known that Bcl-2 and Bax are anti-apoptotic or pro-apoptotic regulator proteins, respectively, and caspase-3 is the execution factor of apoptosis. In addition, PARP is one of several known cellular substrates for caspase-3 and the cleavage of PARP by caspase-3 is considered to be a hallmark of apoptosis.
Figure 5 Effect of 8h on the expression of apoptosis-related proteins in SMMC-7721 cells. (A) The expression of Bax, Bcl2, caspase 3 and β-actin was examined by western blot analysis. SMMC-7721 cells were incubated with, or without, 8h at the indicated concentrations for 48 h and the levels of protein expression were detected using specific antibodies, and β-actin was used as the control. Data shown are representative images of each protein for three separate experiments. (B) Quantitative analysis: the relative levels of each protein compared to control β-actin were determined by densimetric scanning. Data are expressed as means ± SD from three separate experiments. *P < 0.01 vs control.
The mechanisms of the cell apoptosis were determined by western blot assay. SMMC-7721 cells at 1.5 × 10^5/mL were treated with 3.5, 7.0, or 14 μM 8h or vehicle control for […]. After harvested and lyzed, the cell lysates (50 μg/lane) were separated by SDS-PAGE (12% gel) and transferred onto nitrocellulose membranes. After blocked with 5% fat-free milk, the target proteins were probed with anti-Bcl-2, anti-Bax, anti-caspase-3, anti-PARP, and anti-β-actin antibodies (Cell Signaling, Boston), respectively. The bound antibodies were detected by HRP-conjugated second antibodies and visualized using the enhanced chemiluminescent reagent.

[2] = system: HCT116 cells; assay: MTT assay, proliferation of HCT116 cells; assay type: cell-based; settings: Homo sapiens, HCT-116, 48 h, read-out: In vitro cytotoxicity (IC50) HCT116
Description: (§1) The in vitro antitumor activities of the synthesized compounds 7a-l and 8a-l against five human cancer cells were evaluated in MTT assays using 5-fluorouracil (5-FU) and harmine as positive controls. These cells are human hepatocellular carcinoma cells (SMMC-7721 and Hep G2), human colon cancer cell lines (HCT116), human bladder carcinoma cells (EJ), and human lung cancer cells (H460).
(§2) Hepatocellular carcinoma cells (SMMC-7721 and Hep G2), Human colon cancer cell lines (HCT116), human bladder carcinoma cells (EJ) or human lung cancer cells (H460) at 10^4 cells per well were cultured in 10% FBS DMEM in 96-well flat-bottom microplates overnight. The cells were incubated in triplicate with, or without, different concentrations of each test compound for 48 h. During the last 4 h incubation, 30 μL of tetrazolium dye (MTT) solution (5 mg mL^−1) was added to each well. The resulting MTT-formazan crystals were dissolved in 150 μL DMSO, and absorbance was measured spectrophotometrically at 570 nm using an ELISA plate reader. The inhibition induced by each test compound at the indicated concentrations was expressed as a percentage. The concentration required for 50% inhibition (IC50) was calculated using the software (GraphPadPrism Version 4.03).

[3] = system: SMMC-7721 cells; assay: Mitochondrial membrane potential assay (JC-1); assay type: cell-based, human; settings: 14 μM, 48 h (method b112 says 24 h)
Description: The mitochondrial pathway plays an important role in cell apoptosis. To determine whether mitochondria is involved in the apoptosis-inducing effect of 8h, changes in mitochondrial membrane potential were investigated with a fluorescent probe JC-1. JC-1 is a lipophilic cationic dye which facilitates the penetration of mitochondrial membrane due to the decrease of membrane potential, indicated by a fluorescence shift from red to green. The cells were treated with vehicle alone, with different concentrations of 8h (7.0 or 14 μM), or 14 μM 5-FU for 48 h, and then stained with JC-1. […] The percentage of cells emitting green fluorescence reached 57% at the higher dose of 14 μM. The observations indicate that 8h plays a role in the dissipation of mitochondrial membrane potential and the apoptosis effect of 8h is associated with mitochondrial depolarization in cells.
Mitochondrial membrane potential was assessed using a Beyotime (China) kit with JC-1. Briefly, the SMMC-7721 cells in the logarithmic growth phase were treated with 8h (7.0 or 14 μM), 5-FU (14 μM), or vehicle control for 24 h. The cells were harvested, and then labeled with JC-1 in accordance with the manufacturer’s instructions. The samples labeled with JC-1 were analyzed via flow cytometry. For the detection of JC-1, excitation was set at 530 nm, and emissions collected at 585 nm.

[4] = system: EJ cells; assay: MTT assay, proliferation of EJ cells; assay type: cell-based; settings: 48 h, EJ human bladder carcinoma cells, read-out: In vitro cytotoxicity (IC50) EJ
Description: as §1, §2

[5] = system: SMMC-7721 cells; assay: Flow cytometry assay of cell apoptosis (FITC-Annexin V/PI); assay type: cell-based, human; settings: 48 h
Description: To determine whether apoptosis is involved in the anti-proliferative effects of 8h, apoptosis assay was performed using SMMC-7721 cells. The cells were incubated with either vehicle alone, different concentrations of 8h (7.0 or 14 μM), or 14 μM 5-FU for 48 h, and then stained with FITC-Annexin V and propidium iodide (PI). The percentages of apoptotic SMMC-7721 cells were determined by flow cytometry analysis. In the vehicle group, the occurrence of SMMC-7721 cell apoptosis was minimal. […] Low concentration of 8h (7.0 μM) induced 46% SMMC-7721 cell apoptosis, while the higher dose (14 μM) of 8h induced 63% SMMC-7721 cell apoptosis.
Figure 4 Compound 8h induced SMMC-7721 cell apoptosis in vitro. SMMC-7721 cells were incubated with the indicated concentrations of 8h and 14 μM 5-FU for 48 h, and the cells were stained with FITC-Annexin V and PI, followed by flow cytometry analysis. (A) Flow cytometry analysis. (B) Quantitative analysis of apoptotic cells. Data are expressed as means ± SD of the percentages of apoptotic cells from three independent experiments. *P < 0.01 vs control.
SMMC-7721 cells were cultured overnight and incubated in triplicate with compound 8h (7.0 and 14 μM), 5-FU (14 μM), or vehicle for 48 h. The cells were harvested, and stained with FITC-Annexin V and PI (BioVision) at room temperature for 15 min. The percentage of apoptotic cells was determined by flow cytometry (Beckman Coulter) analysis.

[6] = western blot, 3.5, 7.0 or 14 μM

## Cc1nc(C(=O)NCCCCCNC(=O)c2ccccc2O)cc2c1[nH]c1ccccc12 [8h, N-(5-(2-Hydroxybenzamido)pentyl)-1-methyl-9H-pyrido[3,4-b]indole-3-carboxamide]
[1]; [6]
  Expression of Bcl-2: dramatically reduced in a concentration-dependent manner
  Protein levels of Bax: significantly increased
[1]; western blot, vs control group
  Cleavage of PARP and caspase-3: more significant cleavage of both PARP and caspase-3 than the control group
[2]
  IC50: 8.25 µM
[3]
  Percentage of cells emitting green fluorescence (JC-1): 57%
[4]
  IC50: 7.89 µM
[5]; 7.0 μM
  SMMC-7721 cell apoptosis (percentage of apoptotic cells): 46%
[5]; 14 μM
  SMMC-7721 cell apoptosis (percentage of apoptotic cells): 63%
